Experimental data from patent publication US20100048713A1, “COMPOUNDS ACTING ON THE SEROTONIN TRANSPORTER” (Aarhus Universitet, priority 2006, published 2010).
Entries after “also recorded” stand apart in the source; their conditions may differ.

What was measured:
[1] = target: T1, hSERT (Homo sapiens, UniProt P31645); assay: Binding assay on whole cells transfected with hSERT ([3H]-citalopram displacement); details: whole cell assay, 35 nM [3H]-citalopram, 60 min room temperature; table title: 45 min preincubation
T1 construct: expressed in transfected cells; the general 96-well protocol names Cos-1
Description: The pcDNA3 plasmid vector containing the hSERT gene was used for transfection (see FIG. 6).
(§1) The 96-well plate was washed with PBSCM to remove DMEM prior to the assay. […] The plate was subsequently incubated for 60 min at room temperature. The assay was terminated by washing once with PBSCM. The amount of accumulated [^3H]-citalopram was determined by solubilizing cells in scintillant (MicroScint 20) with direct counting of plates in a Packard TopCounter. Data was analyzed by GraphPad software.

[2] = target: T1, hSERT; assay: 5-HT uptake assay with preincubation (whole cells); format: cell-based; details: whole cell assay with preincubation (title 45 min, text 60 min), 75 nM [3H]-5-HT, 10 min
Description: 7 μl Fugene-6 was mixed with 112 μl Dulbecco's modified Eagle's medium, and incubated at room temperature for 5 minutes. 4 μg of plasmid were added and the mixture was further incubated at least 15 minutes. Cos-1 cells were trypsinized and suspended in growth media, and the plasmid/Fugene-6 mixture was added followed by dispersion into a 96-well plate.
as §1, with “assay. 50 μl PBSCM containing increasing concentrations of allosteric ligand were added to each well, and incubated for 60 min at room temperature under moderate agitation.” for “assay.”, “10” for “60”, “[^3H]-5-HT” for “[^3H]-citalopram”
We tested the allosteric ligands for their ability to inhibit/activate 5-HT-uptake in the whole-cell assay after 60 minutes preincubation.

[3] = target: T1, hSERT; assay: Binding of [125I]-RTI-55 in whole cell assay, hSERT; details: displacement of [125I]-RTI-55
Description: RTI-55 was used to test for the compounds of the present invention to act as displacers of cocain.
(§2) Because RTI-55 (and cocaine) acts as inhibitors of SERT and DAT, we also performed the binding assay in cells transfected with human DAT.

[4] = target: T1, hSERT; assay: Dissociation assay with [3H]-citalopram and hSERT membrane preparations; format: binding; details: for Stabilises dissociation of [3H]-citalopram: own effect (10 uM fluoxetine) (concentration which affects dissociation): 10 uM fluoxetine in dissociation buffer; for Stabilises dissociation of [3H]-citalopram: 15 uM citalopram (concentration which affects dissociation): 15 uM citalopram in dissociation buffer
Description: (§3) 17.5 μl Fugene-6 (Roche Molecular Biochemicals) were mixed with 280 μl Dulbecco's modified Eagle's medium, and incubated at room temperature for 5 minutes. 10 μg of plasmid were added and the mixture was further incubated at least 15 minutes. […] Prior to harvesting the dish was rinsed in PBS. Cells were harvested with a cell scraper in buffer 1 (50 mM Tris-base, 150 mM NaCl, 20 mM EDTA, pH 7.4). After centrifugation (3000 g at 4° C. for 10 mins), cells were suspended and homogenized with an IKA Ultra-Turrax from Rose Scientific Ltd (Edmonton, Alberta, Canada) for 20 s in buffer 1. Membranes were pelleted by ultracentrifugation (12 000 g at 4° C. for 15 min) and homogenization was repeated in buffer 1. Finally, after ultracentrifugation (12000 g, 4° C., 15 min) membranes were resuspended in 1 ml buffer 3 (50 mM Tris-base, 120 mM NaCl, 5 mM KCl, pH 7.4) and stored at −80° C.
Dissociation assay with [^3H]-citalopram and membrane preparations SERT-[^3H]-citalopram complex was formed by incubating hSERT membrane preparation and radioligand in buffer 3 during a 60 min incubation at 4° C. Radioligand was present at a concentration 10 times the Kd value. The time kinetic of dissociation was followed by adding 10 μL complex solution to 250 μL buffer 3 in 96-well plates and incubating subsequently for increasing time intervals at RT. Reactions were terminated by filtration through GF/C glass-fibre filters (Unifilter, Perkin Elmer Life Sciences), preincubated with 40 μl 0.5 % polyethyleneimine, using a Pachard Bell cell harvester, and subsequently washed three times with water. Filters were soaked in 40 μl Microscint 20 scintillation liquid (Pachard Bell). Bound radioactivity was determined by direct counting of plates using a Packard Bell microplate scintillation counter. Dissociation curves were obtained by plotting residual binding vs. time of dissociation.
The interaction of the allosteric ligand with the allosteric mechanism used by citalopram was studied by combining allosteric ligand and citalopram in the dissociation buffer. The interaction of the allosteric ligand with the radioligand was studied by combining the allosteric ligand and fluoxetine in the dissociation buffer.
(§4) Dissociation of [^3H]-citalopram from the serotonin transporter has been studied using membrane preparations from SERT-expressing cells. The off-rates of the radioligand were measured in the presence/absence of a fixed concentration of allosteric ligand. […] Additionally, the allosteric impact on the radioligand in the absence of citalopram, was studied by combining 10 μM fluoxetine and 200/2000 μM allosteric ligand in the dissociation buffer. […] The cells were incubated for 10 minutes before the assay was terminated by washing in PBSCM.

[5] = target: T1, hSERT; assay: 5-HT uptake assay, 10 min incubation without preincubation; format: cell-based; details: 75 nM [3H]-5-HT, no preincubation
Description: Cells were grown for 48 h to confluency, and prior to uptake assay, plates were washed in PBSCM. All washing steps were carried out in an automatic plate washer. […] The assay was terminated by washing with PBSCM. The amount of accumulated [^3H]-5HT was determined by solubilizing cells in scintillant (MicroScint 20) with direct counting of plates in a Packard TopCounter. Data was analyzed by GraphPad software.
as §4

[6] = target: T1, hSERT; assay: Binding of [3H]-citalopram to membrane preparations; details: 35 nM [3H]-citalopram, 60 min RT
Description: as §3
A dilution series of the allosteric ligand was prepared in buffer 3 containing 70 nM [^3H]-citalopram. […] The mixture was incubated under moderate agitation at RT for 60 min. Reactions were terminated by filtration through GF/C glass-fibre filters (Unifilter, Perkin Elmer Life Sciences), preincubated with 40 μl 0.5 % polyethyleneimine, using a Pachard Bell cell harvester, and subsequently washed three times with water. Filters were soaked in 40 μl Microscint 20 scintillation liquid (Pachard Bell). Bound radioactivity was determined by direct counting of plates using a Packard Bell microplate scintillation counter. Displacing curves were obtained by plotting residual binding vs. log concentration of the displacing ligand.

[7] = test system: dorsal raphe 5-HT neurons; format: in vivo
Description: The experiments were carried out in male Sprague-Dawley rats weighing 250-300 g at the day of the recording. Prior to the acute study, a dose-response curve on the suppressive effect on neuronal firing of fluoxetine was constructed. Subsequently, in the acute study, 5 mg/kg 1-NSC was injected i.v. followed by administration of 1 mg/kg fluoxetine. In the chronic administration experiments, groups of rats were treated with fluoxetine (10 mg/kg/day), 1-NSC (2×10 mg/kg/day) or in combination for 7 days delivered subcutaneously (s.c.) with osmotic minipumps. Control rats received a minipump containing vehicle (NaCl 0.9%). The rats were tested with the minipumps in place.
Extracellular recordings were performed with single-barreled glass micropipettes preloaded with fiberglass filaments in order to facilitate filling. The tip was broken back to 2-4 μm and filled with a 2 M NaCl solution saturated with Pontamine Sky Blue to stain the location. The rats were placed in a stereotaxic frame and a burr hole was drilled on the midline, 1 mm anterior to lambda. Presumed DRN 5-HT neurons were encountered over a distance of 1 mm starting immediately below the ventral border of the Sylvius aqueduct. These neurons were identified using the criteria of Aghajanian (1978): a slow (0.5-2.5 Hz) and regular firing rate and long-duration (0.8-1.2 ms) positive action potentials; they were also verified to be located in DRN. WAY 100635 (N-{2-[4(2-methoxyphenyl)-1-piperazinyl]ethyl}-N-(2-pyridinyl)cyclohexanecarboxamide trihydrochloride; 50-100 μg/kg, i.v.) was used to reverse the suppressant effect of fluoxetine or fluoxetine/1-NSC on the firing activity of DRN 5-HT neurons. […] For the chronic studies, in order to determine the possible changes of the spontaneous firing activity of dorsal raphe 5-HT neurons, four to five electrode descents were carried out through this nucleus, in rats with minipumps in place.
The allosteric ligand 1-NSC was tested in vivo in Sprague-Dawley rats for the ability to interfere with fluoxetine-induced suppression of the neuronal firing rate (Assay 6).

[8] = target: T2, hDAT (Homo sapiens, UniProt Q01959); assay: Binding of [125I]-RTI-55 in whole cell assay, cells transfected with human DAT; details: displacement of [125I]-RTI-55
T2 construct: expressed in transfected cells
Description: A binding assay as described in example 2, wherein the cocaine analogue [^125I] RTI-55 was used to test for the compounds of the present invention to act as displacers of cocain.
as §2

T1 sequence (P31645 whole entry): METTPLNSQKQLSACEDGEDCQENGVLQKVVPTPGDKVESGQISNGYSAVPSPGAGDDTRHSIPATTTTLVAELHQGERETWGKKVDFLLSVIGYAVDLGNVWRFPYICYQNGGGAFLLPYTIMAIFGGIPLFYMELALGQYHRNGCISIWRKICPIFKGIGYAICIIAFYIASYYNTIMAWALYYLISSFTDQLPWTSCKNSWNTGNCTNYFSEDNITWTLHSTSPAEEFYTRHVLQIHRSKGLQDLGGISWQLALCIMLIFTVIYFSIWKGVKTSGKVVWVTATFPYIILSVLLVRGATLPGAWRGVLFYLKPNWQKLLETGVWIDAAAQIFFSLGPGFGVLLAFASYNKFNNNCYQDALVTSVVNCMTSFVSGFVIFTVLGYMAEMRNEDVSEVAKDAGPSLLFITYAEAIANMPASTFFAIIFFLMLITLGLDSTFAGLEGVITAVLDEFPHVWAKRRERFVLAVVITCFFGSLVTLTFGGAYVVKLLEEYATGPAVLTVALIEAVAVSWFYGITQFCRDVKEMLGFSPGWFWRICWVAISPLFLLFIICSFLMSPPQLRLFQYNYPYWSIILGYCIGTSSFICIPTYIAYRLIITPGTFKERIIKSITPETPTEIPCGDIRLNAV
T2 sequence (Q01959 whole entry): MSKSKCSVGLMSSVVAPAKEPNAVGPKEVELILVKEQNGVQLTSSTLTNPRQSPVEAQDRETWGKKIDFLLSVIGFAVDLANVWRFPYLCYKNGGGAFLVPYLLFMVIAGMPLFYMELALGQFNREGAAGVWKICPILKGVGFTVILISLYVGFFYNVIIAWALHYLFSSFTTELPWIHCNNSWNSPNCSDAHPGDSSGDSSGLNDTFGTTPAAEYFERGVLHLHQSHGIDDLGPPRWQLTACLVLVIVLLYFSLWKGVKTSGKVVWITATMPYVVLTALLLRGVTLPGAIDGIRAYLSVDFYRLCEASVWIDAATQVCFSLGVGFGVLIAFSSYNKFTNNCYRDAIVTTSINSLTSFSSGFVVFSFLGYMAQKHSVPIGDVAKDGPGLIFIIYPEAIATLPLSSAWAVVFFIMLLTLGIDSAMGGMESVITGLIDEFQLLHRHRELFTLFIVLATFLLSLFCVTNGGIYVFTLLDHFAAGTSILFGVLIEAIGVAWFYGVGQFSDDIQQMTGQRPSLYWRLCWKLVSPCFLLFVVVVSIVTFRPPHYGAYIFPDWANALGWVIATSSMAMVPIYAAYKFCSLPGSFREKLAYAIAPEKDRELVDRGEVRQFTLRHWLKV

Compound | EC50 [1] [µM] | IC50 [2] [µM] | EC50 [3] [µM] | EC50 [8] [µM] | further results
CCOS(=O)(=O)c1cccc2ccccc12 [1-NSC react. EtOH, 1-Naphthalene sulfonic acid ethyl ester] | 533 | 110 | 462 | – | Stabilises dissociation of [3H]-citalopram: own effect (10 uM fluoxetine) (concentration which affects dissociation) [4]: 300 µM; Stabilises dissociation of [3H]-citalopram: 15 uM citalopram (concentration which affects dissociation) [4]: 300 µM; 5-HT uptake (effect) [5]: Inhibition; Binding of [3H]-citalopram (Bmax) [6]: Displace
O=S(=O)(Cl)c1cccc2ccccc12 [1-NSC, 1-naphthalenesulfonyl chloride] | – | – | – | – | Stabilises dissociation of [3H]-citalopram: own effect (10 uM fluoxetine) (concentration which affects dissociation) [4]: 2000 µM; Stabilises dissociation of [3H]-citalopram: 15 uM citalopram (concentration which affects dissociation) [4]: 2000 µM; 5-HT uptake (effect) [5]: Increase; Binding of [3H]-citalopram (Bmax) [6]: Displace; effect of 1-NSC alone on neuronal firing rate ([7]; acute injection, restored within minutes (FIG. 1)): small decrease in neuronal firing rate; effect on fluoxetine-induced suppression of the neuronal firing rate ([7]; acute study, 5 mg/kg 1-NSC then 1 mg/kg fluoxetine, DRN (FIG. 1)): acutely enhances the fluoxetine-induced suppression of the neuronal firing rate; also recorded: potentiation of the fluoxetine-induced suppression of the neuronal firing rate; recovery of dorsal raphe 5-HT neuronal firing of fluoxetine treated rats (FIG. 2) ([7]; chronic treatment, 7 day period): potentiated; toxic side effects ([7]; doses used in the experiments of FIGS. 1 and 2, rats): no apparent toxic side effects
OB(O)c1ccccc1 [TS3] | 1420 | 735 | > 2000 | > 2000 | –
CC(=O)c1ccccc1 [TS9] | 990 | > 2000 | > 2000 | > 2000 | –
Nc1ccc(S(=O)(=O)O)c2ccccc12 [TS12] | 523 | – | 269 | 212 | –
Cc1ccc(S(=O)(=O)n2ccnc2)cc1 [TS14] | 1260 | 1820 | 2310 | 1280 | Stabilises dissociation of [3H]-citalopram: own effect (10 uM fluoxetine) (concentration which affects dissociation) [4]: 2000 µM; Stabilises dissociation of [3H]-citalopram: 15 uM citalopram (concentration which affects dissociation) [4]: 2000 µM; 5-HT uptake (effect) [5]: No effect; Binding of [3H]-citalopram (Bmax) [6]: No effect
Nc1c(O)cc(S(=O)(=O)O)c2ccccc12 [TS16] | 54 | 453 | 1.1 | 2.9 | –
O=C(O)c1ccc2ccccc2c1O [TS27] | 185 | 275 | 220 | 138 | –
O=C(O)c1c(O)ccc2ccccc12 [TS28] | 276 | > 2000 | 510 | 288 | –
COc1ccccc1N1CCN(CCN(C(=O)C2CCCCC2)c2ccccn2)CC1.Cl.Cl.Cl [Way 100,635, N-{2-[4(2-methoxyphenyl)-1-piperazinyl]ethyl}-N-(2-pyridinyl)cyclohexanecarboxamide trihydrochloride, reference compound] | – | – | – | – | reversal of suppression of the neuronal firing rate ([7]; 50-100 ug/kg i.v. after fluoxetine or fluoxetine/1-NSC, trihydrochloride): reverses the suppressive effect of fluoxetine on the neuronal firing rate; also recorded: completely restored the neuronal firing rate
CNCCC(Oc1ccc(C(F)(F)F)cc1)c1ccccc1 (stereo not drawn) [fluoxetine, reference compound] | – | – | – | – | recovery of the firing rates ([7]; chronic treatment 7 days s.c. minipumps, rats (FIG. 2)): 30%
